This passage reports inhibition results from patent US9255094B2, “Pyrido[4,3-B]indoles and methods of use” (Medivation Technologies, Inc., priority 2009, dated 2016).

For experiment [1], the target named is T1, rat adrenergic α1B receptor (Rattus norvegicus, UniProt P15823).
T1 construct: from tissue; host or cells: Wistar Rat liver
T1 sequence (P15823 1-515): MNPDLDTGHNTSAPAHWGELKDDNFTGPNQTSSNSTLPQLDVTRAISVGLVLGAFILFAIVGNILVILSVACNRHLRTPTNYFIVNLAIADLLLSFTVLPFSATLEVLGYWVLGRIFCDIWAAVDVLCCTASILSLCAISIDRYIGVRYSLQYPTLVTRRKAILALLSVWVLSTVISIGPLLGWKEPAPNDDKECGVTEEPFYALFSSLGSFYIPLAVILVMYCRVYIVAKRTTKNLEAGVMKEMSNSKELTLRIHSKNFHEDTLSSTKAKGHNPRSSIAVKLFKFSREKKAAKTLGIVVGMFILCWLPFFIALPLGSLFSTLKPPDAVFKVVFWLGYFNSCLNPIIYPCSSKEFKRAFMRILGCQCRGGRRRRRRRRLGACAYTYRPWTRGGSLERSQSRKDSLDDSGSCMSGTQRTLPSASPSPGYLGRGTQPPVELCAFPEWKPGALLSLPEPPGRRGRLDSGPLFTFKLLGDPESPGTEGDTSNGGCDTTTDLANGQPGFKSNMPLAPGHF
Kind of experiment: Adrenergic α1B radioligand binding assay ([3H]Prozosin). To be noted: compound at 0.1 μM; 0.25 nM [3H]Prozosin; Wistar Rat liver; read-out: Percent Inhibition of ligand binding, Adrenergic (0.1 μM) a1B. The protocol: To evaluate in radioligand binding assays the activity of compounds of the invention, rat adrenergic α1B receptor obtained from Wistar Rat liver (Garcia-S'ainz, J. A. et al., Biochem. Biophys. Res. Commun. 186:760, 1992; Michel A. D. et al., Br. J. Pharmacol. 98:883, 1989) in a modified Tris-HCl buffer (50 mM Tris-HCl buffer, pH 7.4, 0.5 mM EDTA) is used. Compounds of the invention are incubated with 0.25 nM [^3H]Prozosin for 60 min at 25° C. Non-specific binding is estimated in the presence of 10 μM phentolamine. Receptor proteins are filtered and washed, the filters are then counted to determine [^3H]Prozosin specifically bound. Compounds are screened at 1 μM or lower, using 1% DMSO as vehicle. Compounds of the invention are tested in this biochemical assay and percent inhibition of specific binding is determined.

In experiment [2] the target is T2, human recombinant adrenergic α2C receptor (Homo sapiens, UniProt P18825).
T2 construct: expressed in transfected cells; host or cells: insect Sf9 cells
T2 sequence (P18825 1-462): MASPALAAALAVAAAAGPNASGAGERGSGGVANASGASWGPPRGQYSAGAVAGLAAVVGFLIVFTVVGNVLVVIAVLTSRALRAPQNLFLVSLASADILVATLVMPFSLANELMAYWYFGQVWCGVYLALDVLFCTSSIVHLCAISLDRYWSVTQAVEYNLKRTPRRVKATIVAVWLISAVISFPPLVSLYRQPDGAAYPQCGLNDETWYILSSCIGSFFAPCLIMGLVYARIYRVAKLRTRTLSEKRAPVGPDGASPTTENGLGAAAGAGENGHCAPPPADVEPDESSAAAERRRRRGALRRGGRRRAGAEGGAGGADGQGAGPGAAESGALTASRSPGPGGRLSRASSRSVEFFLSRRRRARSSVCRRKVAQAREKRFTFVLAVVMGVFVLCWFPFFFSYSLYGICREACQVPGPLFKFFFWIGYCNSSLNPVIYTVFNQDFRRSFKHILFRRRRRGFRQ
Kind of experiment: Adrenergic α2C radioligand binding assay ([3H]MK-912). Particulars: compound at 0.1 μM; 1 nM [3H]MK-912; insect Sf9 cells; read-out: Percent Inhibition of ligand binding, Adrenergic (0.1 μM) a2C. The protocol:
To evaluate in radioligand binding assays the activity of compounds of the invention, human recombinant adrenergic α2C receptor expressed in insect Sf9 cells (Uhlen S et al. J. Pharmacol. Exp. Ther. 271:1558, 1994) in a modified Tris-HCl buffer (50 mM Tris-HCl, pH 7.4, 12.5 mM MgCl2, 2 mM EDTA) is used. Compounds of the invention are incubated with 1 nM [^3H]MK-912 for 60 min at 25° C. Non-specific binding is estimated in the presence of 10 μM WB-4101. Receptor proteins are filtered and washed, the filters are then counted to determine [^3H]MK-912 specifically bound. Compounds are screened at 1 μM or lower, using 1% DMSO as vehicle. Compounds of the invention are tested in this biochemical assay and percent inhibition of specific binding is determined.

For experiment [3], the target named is T3, human recombinant histamine H2 receptor (Homo sapiens, UniProt P25021).
T3 construct: expressed in transfected cells; host or cells: Chinese hamster ovary (CHO) K1 cells
The experiment can be described thus: Histamine H2 radioligand binding assay ([125I]Aminopotentidine). Particulars: compound at 1 μM; 0.1 nM [125I]Aminopotentidine; receptor expressed in CHO-K1 cells. The protocol: To evaluate in radioligand binding assays the activity of compounds of the invention, human recombinant histamine H2 receptor expressed in Chinese hamster ovary (CHO) K1 cells (Ruat, M., Proc. Natl. Acad. Sci. USA. 87(5):1658, 1990) in a 50 mM Phosphate buffer, pH 7.4 was used. Compounds of the invention were incubated with 0.1 nM [^125I]Aminopotentidine for 120 min at 25° C. Non-specific binding was estimated in the presence of 3 μM Tiotidine. Receptor proteins were filtered and washed, the filters were then counted to determine [^125I]Aminopotentidine specifically bound. Compounds were screened at 1 μM or lower, using 1% DMSO as vehicle. Biochemical assay results are presented as the percent inhibition of specific binding in Table 2.

Experiment [4] addresses T4, human recombinant serotonin (5-Hydroxytryptamine) 5-HT5A receptor (Homo sapiens, UniProt P47898).
T4 construct: expressed in transfected cells; host or cells: Chinese hamster ovary (CHO-K1) cells
The experiment can be described thus: Serotonin 5-HT5A radioligand binding assay ([3H]LSD). Particulars: compound at 0.1 μM; 1.7 nM [3H]LSD; CHO-K1 cells; read-out: Percent Inhibition of ligand binding, Serotonin (0.1 μM) 5-HT5A. The protocol: Compounds of the invention were incubated with 1.7 nM [^3H]Lysergic acid diethylamide (LSD) for 60 min at 37° C. […] Receptor proteins were filtered and washed, the filters were then counted to determine [^3H]LSD specifically bound. Compounds were screened at 1 μM or lower, using 1% DMSO as vehicle. Compounds of the invention were tested in this biochemical assay and percent inhibition of specific binding was determined. Biochemical assay results are presented as the percent inhibition of specific binding in Table 4.

T3 sequence (P25021 whole entry): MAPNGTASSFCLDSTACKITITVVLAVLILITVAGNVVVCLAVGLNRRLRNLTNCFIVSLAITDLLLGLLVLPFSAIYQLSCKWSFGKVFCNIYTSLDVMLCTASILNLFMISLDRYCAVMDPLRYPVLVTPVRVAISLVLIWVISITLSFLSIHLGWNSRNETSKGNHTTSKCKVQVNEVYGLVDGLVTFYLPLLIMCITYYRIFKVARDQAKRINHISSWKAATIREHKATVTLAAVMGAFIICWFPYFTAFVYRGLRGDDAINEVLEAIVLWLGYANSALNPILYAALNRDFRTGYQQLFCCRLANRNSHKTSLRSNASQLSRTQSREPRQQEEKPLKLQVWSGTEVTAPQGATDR
T4 sequence (P47898 whole entry): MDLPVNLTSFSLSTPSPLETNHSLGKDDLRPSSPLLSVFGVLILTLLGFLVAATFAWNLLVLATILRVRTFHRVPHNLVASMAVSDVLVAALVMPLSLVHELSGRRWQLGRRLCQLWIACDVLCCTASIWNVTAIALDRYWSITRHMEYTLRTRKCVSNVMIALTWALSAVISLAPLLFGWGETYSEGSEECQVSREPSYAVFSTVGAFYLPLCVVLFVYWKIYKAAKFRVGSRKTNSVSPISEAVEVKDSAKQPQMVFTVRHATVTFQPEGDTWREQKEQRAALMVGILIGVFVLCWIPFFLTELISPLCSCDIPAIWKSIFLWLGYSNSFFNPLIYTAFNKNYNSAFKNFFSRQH

The inhibition is the relative decrease from the control value, in per cent. On to `Cc1ccc2c(c1)c1c(n2CC(O)c2ccncc2)CCN(C)C1` (stereo not shown) [Compound 1-8, 2-(2,8-dimethyl-3,4-dihydro-1H-pyrido[4,3-b]indol-5(2H)-yl)-1-(pyridin-4-yl)ethanol], for which the inhibition at 0.1 µM in experiment [1] was 54%; in experiment [2], 5%.

With `CN1CCc2c(c3cc(Cl)ccc3n2CC(O)c2ccncc2)C1` (stereo not shown) [Compound 1-11, 2-(8-chloro-2-methyl-3,4-dihydro-1H-pyrido[4,3-b]indol-5(2H)-yl)-1-(pyridin-4-yl)ethanol], the inhibition at 0.1 µM in experiment [1] amounted to 60%; in experiment [2] it was 26%. Regarding `Cc1ccc2c(c1)c1c(n2CC(C)(O)c2ccc(O)cc2)CCN(C)C1` (stereo not shown) [Compound 1-15, 4-(1-(2,8-dimethyl-3,4-dihydro-1H-pyrido[4,3-b]indol-5(2H)-yl)-2-hydroxypropan-2-yl)phenol], the inhibition at 0.1 µM in experiment [2] is 5%.

With `CN1CCc2c(c3cc(Cl)c(Cl)cc3n2CC(C)(O)c2ccncc2)C1` (stereo not shown) [Compound 1-17, 1-(7,8-dichloro-2-methyl-3,4-dihydro-1H-pyrido[4,3-b]indol-5(2H)-yl)-2-(pyridin-4-yl)propan-2-ol], the values for the inhibition at 0.1 µM in experiment [1] and in experiment [2] were 55% and 39%, respectively. Take `COc1ccc([C@](C)(O)Cn2c3c(c4cc(C)ccc42)CN(C)CC3)cc1` [Compound 1-20, (S)-1-(2,8-Dimethyl-3,4-dihydro-1H-pyrido[4,3-b]indol-5(2H)-yl)-2-(4-methoxyphenyl)propan-2-ol]: the inhibition at 0.1 µM came out at 63% in experiment [1] and 28% in experiment [2]. With `Cc1ccc2c(c1)c1c(n2CCc2ccc(C)nc2)CCN(CCC#N)C1` [Compound 1-34, 3-(8-methyl-5-(2-(6-methylpyridin-3-yl)ethyl)-3,4-dihydro-1H-pyrido[4,3-b]indol-2(5H)-yl)propanenitrile], in experiment [3], the inhibition at 1 µM was 0%. The same measure, in the same setting: for `Cc1ccc2c(c1)c1c(n2CC(=O)c2ccccc2)CCN(C)C1` [Compound 1-35, 2-(2,8-dimethyl-3,4-dihydro-1H-pyrido[4,3-b]indol-5(2H)-yl)-1-phenylethanone] the value was 11%; for `CN1CCc2c(c3cc(Cl)ccc3n2CC(=O)c2ccccc2)C1` [Compound 1-36, 2-(8-chloro-2-methyl-3,4-dihydro-1H-pyrido[4,3-b]indol-5(2H)-yl)-1-phenylethanone], 48%; for `CN1CCc2c(c3cc(Cl)ccc3n2CC(=O)c2ccc(F)cc2)C1` [Compound 1-37, 2-(8-chloro-2-methyl-3,4-dihydro-1H-pyrido[4,3-b]indol-5(2H)-yl)-1-(4-fluorophenyl)ethanone], 80%. On the same count and under the same terms, the result for `CN1CCc2c(c3cc(Cl)ccc3n2CC(=O)c2ccc(Cl)cc2)C1` [Compound 1-38, 2-(8-chloro-2-methyl-3,4-dihydro-1H-pyrido[4,3-b]indol-5(2H)-yl)-1-(4-chlorophenyl)ethanone] reads 56%; that for `Cc1ccc2c(c1)c1c(n2CC(=O)c2ccc(F)cc2)CCN(C)C1` [Compound 1-39, 2-(2,8-dimethyl-3,4-dihydro-1H-pyrido[4,3-b]indol-5(2H)-yl)-1-(4-fluorophenyl)ethanone], 66%; that for `Cc1ccc2c(c1)c1c(n2CCc2ccc(CCCN)nc2)CCN(C)C1` [Compound 1-40, 3-(5-(2-(2,8-dimethyl-3,4-dihydro-1H-pyrido[4,3-b]indol-5(2H)-yl)ethyl)pyridin-2-yl)propan-1-amine], 18%. On the same count and under the same terms, the result for `Cc1ccc2c(c1)c1c(n2CCc2ccc(C(F)(F)F)nc2)CCNC1` [Compound 1-41, 8-methyl-5-(2-(6-(trifluoromethyl)pyridin-3-yl)ethyl)-2,3,4,5-tetrahydro-1H-pyrido[4,3-b]indole] reads 6%; that for `Cc1ccc2c(c1)c1c(n2CCc2ccc(C)nc2)CCN(CCCO)C1` [Compound 1-42, 3-(8-methyl-5-(2-(6-methylpyridin-3-yl)ethyl)-3,4-dihydro-1H-pyrido[4,3-b]indole-2(5H)-yl)propan-1-ol], 16%. Turning to `Cc1ccc2c(c1)c1c(n2CC(C)c2ccncc2)CCN(C)C1` (stereo not shown) [Compound 1-46, 2,8-dimethyl-5-(2-(pyridin-4-yl)propyl)-2,3,4,5-tetrahydro-1H-pyrido[4,3-b]indole], in experiment [2], the inhibition at 0.1 µM was found to be 22%. For the molecule `Cc1ccc2c(c1)c1c(n2CC(C)(C)c2ccncc2)CCN(C)C1` [Compound 1-49, 2,8-dimethyl-5-(2-methyl-2-(pyridin-4-yl)propyl)-2,3,4,5-tetrahydro-1H-pyrido[4,3-b]indole], the inhibition at 0.1 µM in experiment [2] is 43%. Take `CC[C@](O)(Cn1c2c(c3cc(C)ccc31)CN(C)CC2)c1ccc(F)cc1` [Compound 1-60, (R)-1-(2,8-Dimethyl-3,4-dihydro-1H-pyrido[4,3-b]indol-5(2H)-yl)-2-(4-fluorophenyl)butan-2-ol]: the inhibition at 0.1 µM in experiment [4] was 26%; in experiment [1], -2%; in experiment [2], 9%. The like results for `CCCC[C@](O)(Cn1c2c(c3cc(Cl)ccc31)CN(C)CC2)c1ccc(F)cc1` [Compound 1-61, (R)-1-(8-Chloro-2-methyl-3,4-dihydro-1H-pyrido[4,3-b]indol-5(2H)-yl)-2-(4-fluorophenyl)hexan-2-ol] were, in that order, 5%, 0% and 11%.

Consider `CC[C@@](O)(Cn1c2c(c3cc(C)ccc31)CN(C)CC2)c1ccncc1` [Compound 1-62, (S)-1-(2,8-Dimethyl-3,4-dihydro-1H-pyrido[4,3-b]indol-5(2H)-yl)-2-(pyridine-4-yl)butan-2-ol], for which the inhibition at 0.1 µM in experiment [4] was 6%; in experiment [2], -5%. For `CC[C@](O)(Cn1c2c(c3cc(C)ccc31)CN(C)CC2)c1ccncc1` [Compound 1-63, (R)-1-(2,8-Dimethyl-3,4-dihydro-1H-pyrido[4,3-b]indol-5(2H)-yl)-2-(pyridine-4-yl)butan-2-ol], the inhibition at 0.1 µM in experiment [4] came to 15%; in experiment [1], 5%; in experiment [2], 4%.
